For data set [1], the system named is Adult male Sprague-Dawley rats. The data set can be described thus: FPS in fear-conditioned animals without cue re-exposure. Format: in vivo, rat. To be noted: 10 mg/kg AM404 or 5 mg/kg rimonabant; tested 1 hr following drug administration. On the procedure: (§1) Fear conditioning: All training and testing trials were performed in standardized chambers optimized for the measurement of fear-potentiated startle (see Walker et al. (2002) J. Neurosci. 22: 2343-2351). Animals were pre-exposed to the chambers for 10 min on each of 2 days prior to training for habituation purposes and to minimize the effects of contextual conditioning. On 2 consecutive days following habituation, rats were returned to the same chambers and presented with 10 pairings of a light (3.7 sec) co-terminating with a 0.4-mA, 0.5-sec shock (3.6-min inter-trial interval).
Matching: Twenty-four hours following the last fear-conditioning session, animals were returned to the same chambers and presented with startle stimuli (50-msec, 95-dB white-noise bursts) in the presence or absence of the light conditioned stimulus (light-CS). Increased startle in the presence of the light-CS was taken as a measure of conditioned fear, and the magnitude of the fear response was calculated as the percentage by which startle increased when the light-CS was presented in compound with the startle stimulus versus when it was omitted (fear-potentiated startle or FPS). Using these measurements, animals were divided into groups displaying approximately equal levels of FPS prior to drug treatment and extinction training. […]

Data set [2] concerns Adult male Sprague-Dawley rats. Briefly: Shock reactivity, baseline startle and activity measures. The class given is in vivo, rat. To be noted: 10 mg/kg. On the procedure:
Shock Reactivity, Startle, and Activity Measures: Animals that had been previously fear-conditioned were injected with AM404, placed in the training/testing chambers, and presented with 3 unpaired shocks and 42 startle stimuli (0.4-mA, 0.5-sec shocks, 95-dB noise-burst startle). The same group of animals was returned to the same chambers 3 d later, injected with vehicle, and presented with an identical behavioral test. The values shown are the mean integrated voltages of the accelerometers measured over 200-msec periods beginning at the onset of either the shocks or the startle stimuli. Additionally, a measure of spontaneous motor activity was derived from the mean displacement of the accelerometers in the 2 min prior to delivery of the first shock, while animals were exploring the chambers.
This experiment examined behavioral effects engendered by AM404 treatment. These included the effect of 10 mg/kg AM404 on: 1) shock-reactivity as a measure of pain sensitivity; 2) baseline startle as one measure of anxiety; and 3) general motor activity within the training chambers. Animals were fear-conditioned and then returned to the training chamber several days later and administered 10 mg/kg AM404. Following drug administration, animals were presented with 3 shocks and 42 startle stimuli identical to those used in the above studies. Subsequently, the same animals were returned to the testing chamber 3 days later, injected with vehicle, and similarly tested.

In data set [3] the test system is Adult male Sprague-Dawley rats. Briefly: Shock-induced reinstatement of fear. The class given is in vivo, rat. On the procedure:
Reinstatement: Animals that had been previously fear-conditioned and extinction-trained were returned to the testing chamber 48 hours and sometimes 96 hours following extinction training and presented with 3 footshocks in the absence of the light-CS (0.4 mA, 0.5 sec shock, 2 min inter-trial interval). Immediately following the unpaired shocks, animals were tested for the presence of fear-potentiated startle (15 light-startle compounds).
Shock-induced reinstatement was examined 2 days following treatment with AM404 or vehicle during extinction. Previous studies have shown that the level of fear following reinstatement is dependent both on the level of the stressor and the amount of previous extinction, as long as the stressor is delivered in the same context as the original training context (Rescorla & Heth (1975). J. Exp. Psychol. Anim. Behav. Process. 1(1): 88-96; Bouton & King (1983) J. Exp. Psychol. Anim. Behav. Process. 9: 248-265). As animals were matched for equivalent FPS prior to extinction training, the susceptibility of animals to reinstatement can be taken as a secondary measure of the strength of extinction training, and perhaps as a preliminary measure of the resiliency of these inhibitory extinction memories to stressors. […]

In data set [4] the test system is Adult male Sprague-Dawley rats. The data set can be described thus: Extinction of conditioned fear measured by fear-potentiated startle (FPS) after extinction training. The conditions noted are these: for fear potentiated startle (FPS) after extinction training: 10 mg/kg AM404, 5 mg/kg rimonabant, alone or together, 30 trial extinction, 24 hrs post extinction training; for fear (FPS) vs vehicle: 10 mg/kg i.p., 30-trial extinction; for extinction of fear (summary of Examples 1-10): systemic application in rats, fear-potentiated startle; for conditioned fear following extinction training vs vehicle: p<0.01. The class given is in vivo, rat. The protocol:
Animals: Adult male Sprague-Dawley rats (Charles River, Raleigh, N.C., 350-450 g) were used in the present studies. Animals were housed in pairs in a temperature-controlled animal colony, with ad libitum access to food and water, and maintained on a 12 hr light/dark cycle.
as §1
Matching: Twenty-four hours following the last fear-conditioning session, animals were returned to the same chambers and presented with startle stimuli (50-msec, 95-dB white-noise bursts) in the presence or absence of the light conditioned stimulus (light-CS). Increased startle in the presence of the light-CS was taken as a measure of conditioned fear, and the magnitude of the fear response was calculated as the percentage by which startle increased when the light-CS was presented in compound with the startle stimulus versus when it was omitted (fear-potentiated startle or FPS). Using these measurements, animals were divided into groups displaying approximately equal levels of FPS prior to drug treatment and extinction training.
Extinction training: Five days following the last fear conditioning trial, animals were injected intraperitoneally with a test compound or its vehicle in 1 mL/kg volumes and then immediately returned to the same chambers and presented with 15, 30 or 90 presentations of the light-CS in the absence of footshock (3.7-sec light, 30-sec inter-trial interval). One hour following extinction training, a subset of animals was given a short test consisting of startle stimuli in the presence or absence of the light-CS (2-5 light-startle compounds, values shown are averages of all trials). Twenty-four hrs post-extinction training, all animals were tested for the presence of fear-potentiated startle (15 light-startle compounds).
Statistics: Comparisons were made across drug-treatment groups at each test (e.g. 24-hr groups were compared across treatment groups) using ANOVA or Student's t-test with drug or dose as the independent measure, and using Fischer's LSD test for post-hoc analysis.

For data set [5] the following is noted: intra-amygdala infusions; fear-potentiated startle (AP5 also freezing); cited from earlier work.
The conditions of data set [6]: PD98059 systemic and intra-amygdala infusions; AP5 intra-amygdala infusions; cited from earlier work.
The conditions of data set [7]: cited from earlier work.
For data set [8] the following is noted: doses greater than 5 mg/kg; Herzberg et al. 1997; cited from earlier work.

This is an account of results in US20060084659A1, “Augmentation of psychotherapy with cannabinoid reuptake inhibitors” (priority 2004, published 2006).

For `CCCCC/C=C\C/C=C\C/C=C\C/C=C\CCCC(=O)Nc1ccc(O)cc1` [AM404, N-(4-hydroxyphenyl)arachidonamide], in data set [1], the “FPS when cue re-exposure omitted” value was “no effect on FPS”. Also, in data set [2] (3 footshocks, p>0.5), the “shock reactivity (pain sensitivity)” value is “little effect”. For the same compound, the “baseline startle (anxiety)” value in data set [2] (p=0.45) is on record as “non-significant trend toward decreased baseline startle”. Also, the “overall locomotor activity levels in the testing chamber” value in data set [2] (p>0.5) was “little effect”. For the same compound, the reinstatement-induced conditioned fear result in data set [3] (2 mg/kg and 10 mg/kg groups pooled, drug given prior to extinction training, 48 hrs prior to reinstatement with 3 footshocks, p<0.05) is given as “less reinstatement-induced conditioned fear”. In data set [3] (first 4 trials of testing following reinstatement, Trial X Drug p<0.02), the “within-session extinction (change in FPS) after reinstatement” value is recorded as “little change”. In data set [4], the “fear potentiated startle (FPS) after extinction training” value was “significant extinction”. Moreover, the “fear (FPS) vs vehicle” value in data set [4] (1 hr post extinction, p<0.05) is listed as “significantly less fear than vehicle-treated controls”; in data set [4] (24 hrs post-extinction, post-hoc p<0.05) it was “significantly less than vehicle-treated animals”. For the same compound, in data set [4] (prior to 30-trial extinction training, 24 hrs following extinction training, main effect of drug p<0.05), the “extinction retention (fear in the presence of the CS)” value was “enhancement of extinction retention”. The “extinction of fear (summary of Examples 1-10)” value (from here on “extinction of fear”) in data set [4] is given as “dose-dependently enhances extinction of fear”.

As for `NC(CCCP(=O)(O)O)C(=O)O` (stereo not shown) [AP5], the extinction entry in data set [5] is “block extinction”. Moreover, in data set [6], the fear conditioning entry is “block fear conditioning”.

Broadly, the half-life is the time needed for the level to fall by half in the phase considered. For the compound `N[C@@H]1CONC1=O` [DCS, D-cycloserine], in data set [7] (in vivo), the half-life is 10 h, the route of excretion entry is “primarily renally excreted” and the “time of peak blood levels after dosing” value was 3 to 8 h. In data set [7] (infrequent, subjects on chronic dosing schedules, generally chronically ill with tuberculosis), the side effects result was “drowsiness, headache, confusion, tremor, vertigo, and memory difficulties, paresthesias, and seizure”.

`COc1cccc(-c2cc(=O)c3ccccc3o2)c1N` [PD98059]: the extinction result in data set [5] is listed as “disrupt extinction”. For the same compound, the fear conditioning entry in data set [6] is “disrupt fear-conditioning”.

For `NC(=O)c1cccc(-c2cccc(OC(=O)NC3CCCCC3)c2)c1` [URB597, cyclohexylcarbamic acid 3′-carbamoylbiphenyl-3-yl ester], the “reduction in fear within the testing session” value in data set [4] (15-trial extinction, relative to animals receiving no drug) is recorded as “greater reductions in fear within the testing session”. The “average decrease in FPS relative to pre-extinction levels” value in data set [4] (15-trial extinction, testing sessions 48 and 96 hours after extinction training) is listed as “approximately 30%”. Besides, the “extinction retention (fear in the presence of the CS)” value in data set [4] (prior to 15-trial extinction training, 48 hrs following extinction training) is recorded as “enhancement of extinction retention”. Besides, in data set [4], the “extinction of fear” value is recorded as “dose-dependently enhances extinction of fear”.

In the case of `Cc1c(C(=O)c2cccc3ccccc23)c2cccc3c2n1[C@H](CN1CCOCC1)CO3` [WIN 55-212,2], in data set [8], the “locomotor and analgesic effects” value was “prominent locomotor and analgesic effects”. In addition, the “extinction retention (reduction in fear)” value in data set [4] (5 mg/kg single dose prior to 30-trial extinction training) was “did not augment the non-significant reduction in fear”.

For the compound `Cc1c(C(=O)NN2CCCCC2)nn(-c2ccc(Cl)cc2Cl)c1-c1ccc(Cl)cc1` [rimonabant], the “FPS when cue re-exposure omitted” value in data set [1] is on record as “no effect on FPS”. In addition, the “conditioned fear following extinction training vs vehicle” value in data set [4] (1.5 mg/kg i.p., 90-trial extinction, 24 hrs post-extinction) is given as “significantly higher levels of conditioned fear than vehicle-treated controls”. The “conditioned fear following extinction training vs vehicle” value in data set [4] (5 mg/kg i.p., 90-trial extinction, 24 hrs post-extinction) is “significantly higher levels of conditioned fear than vehicle-treated controls”. For the same compound, in data set [4], the “fear potentiated startle (FPS) after extinction training” value is reported as “no decrease in fear potentiated startle” and the “extinction of fear” value is reported as “dose-dependently blocks extinction of fear”. Moreover, in data set [4] (90-trial extinction, acute administration immediately prior to extinction training, tested 24 hrs following extinction training), the “extinction retention (fear in the presence of the light-CS)” value is “profound disruption of extinction retention”.
